The source of these data is the supplement of paper PMC11451515.

The experiment concerns NOMO1. Nature of the experiment: cell viability relative to DMSO control; higher = less cytotoxic. Particulars: 48 h. Summed up: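 Viability is a per-plate percentage relative to DMSO wells, with cell-free wells as background. CellTiter-Glo One luminescence was read after 48 h at 37°C on 1536-well plates (5 μl) of NOMO1 or SEM (500 cells/well) or P12-Ichikawa (1000 cells/well) leukemia cells. The cells had been adapted for at least four passages in each medium and pin-dosed with library compounds in DMSO from 47 μM to 0.79 nM in 11 threefold steps.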

Where [1] appears, read: HPLM + 10% dialyzed FBS, 0.000781 µM.
Setting [2] is: HPLM + 10% dialyzed FBS, 0.00234 µM.
Where [3] appears, read: HPLM + 10% dialyzed FBS, 0.00702 µM.
The mark [4] stands for this setting: HPLM + 10% dialyzed FBS, 0.0211 µM.
Setting [5] is: HPLM + 10% dialyzed FBS, 0.0632 µM.
Setting [6] is: HPLM + 10% dialyzed FBS, 0.19 µM.
[7] abbreviates: HPLM + 10% dialyzed FBS, 0.569 µM.
[8] abbreviates: HPLM + 10% dialyzed FBS, 1.71 µM.
Where [9] appears, read: HPLM + 10% dialyzed FBS, 5.12 µM.
Setting [10] is: HPLM + 10% dialyzed FBS, 15.4 µM.
Where [11] appears, read: HPLM + 10% dialyzed FBS, 46.1 µM.
[12] abbreviates: RPMI 5 mM glucose + 10% FBS, 0.000781 µM.
Where [13] appears, read: RPMI 5 mM glucose + 10% FBS, 0.00234 µM.
The mark [14] stands for this setting: RPMI 5 mM glucose + 10% FBS, 0.00702 µM.
The mark [15] stands for this setting: RPMI 5 mM glucose + 10% FBS, 0.0211 µM.
The mark [16] stands for this setting: RPMI 5 mM glucose + 10% FBS, 0.0632 µM.
Where [17] appears, read: RPMI 5 mM glucose + 10% FBS, 0.19 µM.
[18] abbreviates: RPMI 5 mM glucose + 10% FBS, 0.569 µM.
[19] abbreviates: RPMI 5 mM glucose + 10% FBS, 1.71 µM.
[20] abbreviates: RPMI 5 mM glucose + 10% FBS, 5.12 µM.
Setting [21] is: RPMI 5 mM glucose + 10% FBS, 15.4 µM.
Setting [22] is: RPMI 5 mM glucose + 10% FBS, 46.1 µM.
[23] abbreviates: RPMI 5 mM glucose + 10% dialyzed FBS, 0.000781 µM.
Where [24] appears, read: RPMI 5 mM glucose + 10% dialyzed FBS, 0.00234 µM.
Setting [25] is: RPMI 5 mM glucose + 10% dialyzed FBS, 0.00702 µM.
[26] abbreviates: RPMI 5 mM glucose + 10% dialyzed FBS, 0.0211 µM.
[27] abbreviates: RPMI 5 mM glucose + 10% dialyzed FBS, 0.0632 µM.
Where [28] appears, read: RPMI 5 mM glucose + 10% dialyzed FBS, 0.19 µM.
Setting [29] is: RPMI 5 mM glucose + 10% dialyzed FBS, 0.569 µM.
Setting [30] is: RPMI 5 mM glucose + 10% dialyzed FBS, 1.71 µM.
The mark [31] stands for this setting: RPMI 5 mM glucose + 10% dialyzed FBS, 5.12 µM.
[32] abbreviates: RPMI 5 mM glucose + 10% dialyzed FBS, 15.4 µM.
[33] abbreviates: RPMI 5 mM glucose + 10% dialyzed FBS, 46.1 µM.

Consider `Cn1cc(C[C@@H](N)C(=O)O)c2ccccc21`, for which the cell viability is 107% under setting [1]; 106% under setting [2]; 108% under setting [3]; 106% under setting [4]; 92.4% under setting [5]; 111% under setting [6]. Moreover, the cell viability runs as follows: under setting [7], 100%; under setting [8], 101%; under setting [9], 101%; under setting [10], 90.8%; under setting [11], 94.9%; under setting [12], 90.4%. For the same molecule, the cell viability under setting [13] was 90.7%; the cell viability under setting [14] turned out to be 96.5%; the cell viability under setting [15] was 107%; the cell viability under setting [16] is 89.6%; the cell viability under setting [17] was determined as 95.1%; the cell viability under setting [18] is 95.6%. Besides, the cell viability stood at 95.5% under setting [19]; 92.6% under setting [20]; 97.9% under setting [21]; 81.2% under setting [22]; 90% under setting [23]; 90.1% under setting [24]. Besides, the cell viability is, setting by setting: under setting [25], 93.4%; under setting [26], 94%; under setting [27], 101%; under setting [28], 98.9%; under setting [29], 93.8%; under setting [30], 88.9%. For the same molecule, the cell viability under setting [31] was 93.3%, the cell viability under setting [32] was determined as 87% and the cell viability under setting [33] amounted to 76.7%.
In the case of `CN1CCN(CCOc2cc(OC3CCOCC3)c3c(Nc4c(Cl)ccc5c4OCO5)ncnc3c2)CC1`, the cell viability by setting is: under setting [1], 134%; under setting [2], 119%; under setting [3], 125%; under setting [4], 131%; under setting [5], 125%; under setting [6], 123%. Further, the cell viability under setting [7] came to 134%; the cell viability under setting [8] came to 123%; the cell viability under setting [9] is 89.4%; the cell viability under setting [10] turned out to be 60.1%; the cell viability under setting [11] turned out to be 71.4%.
Regarding `Nc1ncnc2c1nc(Cl)n2[C@@H]1O[C@H](CO)[C@@H](O)[C@H]1O`, the cell viability worked out at 116% under setting [12]; 123% under setting [13]; 110% under setting [14]; 120% under setting [15]; 120% under setting [16]; 113% under setting [17]. Moreover, the cell viability under setting [18] worked out at 106%; the cell viability under setting [19] is 110%; the cell viability under setting [20] was 118%; the cell viability under setting [21] worked out at 108%; the cell viability under setting [22] worked out at 14.5%.
For `CCOC1=CC=CC=C1N\2C(=O)C3=C(C=CC=C3)\N=C2C(C)N4CCN(CC4)C(=O)COC5=CC=C(Cl)C=C5` (stereo not given), the cell viability by setting is: under setting [12], 116%; under setting [13], 115%; under setting [14], 132%; under setting [15], 112%; under setting [16], 131%; under setting [17], 127%. Moreover, the cell viability reads like this: under setting [18], 119%; under setting [19], 37.8%; under setting [20], 10.4%; under setting [21], 5.57%; under setting [22], 3.82%.
As for `OCc1ccc(-c2ccc(-c3ccc(CO)s3)o2)s1`, the cell viability stood at 124% under setting [1]; 121% under setting [2]; 138% under setting [3]; 147% under setting [4]; 124% under setting [5]; 114% under setting [6]. Further, the cell viability was 122% under setting [7]; 107% under setting [8]; 118% under setting [9]; 108% under setting [10]; 96.2% under setting [11].
For `O=C1NC(=O)/C(=C/c2ccc(-c3ccc(F)cc3O)o2)S1`, the cell viability is, setting by setting: under setting [1], 106%; under setting [2], 126%; under setting [3], 125%; under setting [4], 130%; under setting [5], 127%; under setting [6], 114%. Besides, the cell viability under setting [7] amounted to 125%; the cell viability under setting [8] is 91.8%; the cell viability under setting [9] was determined as 103%; the cell viability under setting [10] turned out to be 82.7%; the cell viability under setting [11] turned out to be 72.9%; the cell viability under setting [12] was determined as 113%. For the same molecule, the cell viability was 108% under setting [13]; 104% under setting [14]; 114% under setting [15]; 112% under setting [16]; 105% under setting [17]; 103% under setting [18]. Further, the cell viability under setting [19] came out at 94.7%; the cell viability under setting [20] amounted to 95.7%; the cell viability under setting [21] turned out to be 92.7%; the cell viability under setting [22] was determined as 84.9%; the cell viability under setting [23] stood at 112%; the cell viability under setting [24] worked out at 117%. In addition, the cell viability is, setting by setting: under setting [25], 114%; under setting [26], 103%; under setting [27], 113%; under setting [28], 116%; under setting [29], 91.6%; under setting [30], 93.9%. Also, the cell viability is 91.7% under setting [31], 75.8% under setting [32] and 66.9% under setting [33].

Broadly, the cell viability is a read-out of living cells in per cent, often relative to untreated cells.
